From patent US20200255492A1, “LEPTIN PEPTIDES AND THEIR USE FOR TREATING NEUROLOGICAL DISORDERS” (UNIVERSITY OF DUNDEE, priority 2017, published 2020)

Columns and labels:
[1] = tested on: SH-SY5Y; experiment: Cell survival with Aβ1-42 and leptin (22-56) (data not shown); format: cell-based, human
Experimental: The human neuroblastoma cell line, SH-SY5Y (ECACC, UK) was maintained in Dulbecco's Modified Eagle Medium supplemented with glucose ([…]) and 10% (v/v) cosmic calf serum (Fisher Scientific, UK) at 37° C. in a humidified atmosphere of 5% CO2, 95% air and allowed to reach 70-80% confluence before seeding. Cells (passage 10-18) were plated at 10 000 cells per well in 96 well tissue culture plates (Nunc, VWR, UK) and at a density of 2×10^5 cells in 35 mm dishes for protein extraction. To induce differentiation, cells were cultured in DMEM supplemented with glucose ([…]), 1% (v/v) cosmic calf serum and 10 μM retinoic acid for 5 days. Thereafter they were incubated in DMEM supplemented with glucose ([…]), serum replacement 2 (2%; Sigma, UK) and 18 μM 5-fluorodeoxyuridine to inhibit proliferation of undifferentiated cells. […]
The concentration of lactate dehydrogenase (LDH) in the culture medium or the mitochondrial activity within cells was used to monitor the level of cell death, as previously (Oldreive and Doherty 2010). […] Plates were washed 5-10 times in dH2O and cells solubilised in 100 μl dimethyl sulfoxide (DMSO) before reading the absorbance on a Biohit BP100 plate reader. For all assays, data is expressed as percentage relative to control, untreated wells to normalize for differences in plating density between individual experiments. […]

[2] = tested on: acute hippocampal slices; experiment: HFS-induced LTP with leptin hexamers; format: cell-based, Sprague Dawley rats; conditions: 10 nM for 50 min prior to HFS; control LTP 117±10.8% / 125±4.9%
Experimental: Parasagittal hippocampal slices (300 μm) were prepared from either P13-21 or 12-24-week-old male Sprague Dawley rats as previously (Moult et al. 2010). Brains were rapidly removed and placed in ice-cold artificial CSF (aCSF; bubbled with 95% O2 and 5% CO2) containing the following (in mm): 124 NaCl, 3 KCl, 26 NaHCO3, 1.25 NaH2PO4, 2 CaCl2, 1 MgSO4, and 10 d-glucose. Once prepared, parasagittal slices were allowed to recover at room temperature in oxygenated aCSF for 1 h before use. Slices were transferred to a submerged chamber maintained at room temperature and perfused with artificial cerebrospinal fluid at 2 ml min^−1. Standard extracellular recordings were used to monitor evoked field excitatory postsynaptic potentials (fEPSP) from stratum radiatum. The Schaffer collateral-commissural pathway was stimulated (constant voltage; 0.1 ms) at 0.033 Hz, using a stimulus intensity that evoked a peak amplitude ˜50% of the maximum. Synaptic potentials were low pass filtered at 2 kHz and digitally sampled at 10 kHz. The fEPSP slope was measured and expressed relative to baseline. Synaptic records are the average of 4 consecutive responses and stimulus artefacts are blanked for clarity. Recordings were made using an Axopatch 200B amplifier and analyzed using LTP v2.4 software. In synaptic plasticity studies, the degree of potentiation was calculated 30-35 min after HFS and expressed as a percentage of baseline±standard error of mean (SEM).
To determine if the leptin hexamers influence the magnitude of activity-dependent synaptic plasticity, standard extracellular recording techniques were used to assess the effects of leptin (116-121, 117-122, 118-123, 120-125, 124-129 and 125-130) on the magnitude of LTP induced by high frequency stimulation (100 Hz, 1 s) in acute hippocampal slices. […] In parallel studies, application of leptin (118-123; 158±3.8%; n=7; p<0.05; FIG. 8) or leptin (120-125; to 163±8.8% of baseline; n=5; p<0.05) also facilitated LTP, compared to control LTP (FIG. 8).

[3] = tested on: differentiated SH-SY5Y human neuronal cells; experiment: MTT assay of mitochondrial activity (cell viability); format: cell-based; conditions: 10 nM; n=11
Experimental: (§1) The human neuroblastoma cell line, SH-SY5Y (ECACC, UK) was maintained in Dulbecco's Modified Eagle Medium supplemented with glucose ([…]) and 10% (v/v) cosmic calf serum (Fisher Scientific, UK) at 37° C. in a humidified atmosphere of 5% CO2, 95% air and allowed to reach 70-80% confluence before seeding. Cells (passage 10-18) were plated at 10 000 cells per well in 96 well tissue culture plates (Nunc, VWR, UK) and at a density of 2×10^5 cells in 35 mm dishes for protein extraction. To induce differentiation, cells were cultured in DMEM supplemented with glucose ([…]), 1% (v/v) cosmic calf serum and 10 μM retinoic acid for 5 days. Thereafter they were incubated in DMEM supplemented with glucose ([…]), serum replacement 2 (2%; Sigma, UK) and 18 μM 5-fluorodeoxyuridine to inhibit proliferation of undifferentiated cells. The 50% of the medium was changed every 2-3 days and pharmacological treatment was carried out 7 days after switching to this medium. Reagents used were (from Sigma UK unless stated) 0.1-10 nM human leptin and leptin (116-130); 0.1-10 nM leptin (22-56; Bachem; Switzerland); 10 nM leptin (116-121) leptin (117-122), leptin (124-129) or leptin (125-130; all Severn Biotech, UK); 5 μM copper chloride; […], 5 μM WP1066 or 50 nM wortmannin. All treatments were added to the culture at the same time and survival assays were carried out after 96 h treatment. Protein samples for signaling ELISA were extracted 3 h after exposure to the relevant reagents and for biomarker expression after 72 hours.
(§2) The concentration of lactate dehydrogenase (LDH) in the culture medium or the mitochondrial activity within cells was used to monitor the level of cell death, as previously (Oldreive and Doherty 2010). In certain experiments, a Crystal violet assay was used to assess total cell number. Cells were fixed in neutral buffered formalin and washed 3 times in PBS prior to staining with 0.01% crystal violet acetate for 5 min. Plates were washed 5-10 times in dH2O and cells solubilised in 100 μl dimethyl sulfoxide (DMSO) before reading the absorbance on a Biohit BP100 plate reader. For all assays, data is expressed as percentage relative to control, untreated wells to normalize for differences in plating density between individual experiments.
To confirm the findings of the LDH assay, cells were treated with Aβ1-42 alone or with a 10 nM of leptin, leptin (116-130) or the listed hexamers, and mitochondrial activity, as a measure of cell viability, determined by MTT assay. A significant increase in mitochondrial activity was detected following treatment with either leptin or leptin (116-130; both 10 nM). […] Thus for Aβ1-42-treated cells, 10 nM leptin and 10 nM leptin (116-130) increased mitochondrial activity by 32.6±5.2% and 40.9+5.8% respectively compared with Aβ1-42 alone (n=11; P<0.001; FIG. 11B); an effect that was mirrored by 10 nM leptin (116-121) and leptin (117-122); 43.61±3.9% and 40.5±3.7*% (n=11; P<0.001; FIG. 11B), but not by 10 nM leptin (124-129) or leptin (125-130) (n=11; P>0.5; FIG. 11B). This reinforces the findings from the LDH assay that similar to either leptin or leptin (116-130), treatment with leptin (116-121) or leptin (117-122) reduces neuronal death in response to AD-linked toxins in vitro.

[4] = tested on: differentiated human neural cells (SH-SY5Y); experiment: Crystal violet assay of cell number; format: cell-based
Experimental: as §1, §2
In parallel studies a crystal violet assay was used to verify these findings by assessing cell number. In CuCl2-treated cells, there was a concentration-dependent increase in the survival of cells treated with either leptin or leptin (116-130). […] Treatment with leptin (116-130) also mirrored leptin action by increasing cell viability in Aβ1-42-treated cultures as cell number increased by 19.2±15% and 44.3±7.5% after treatment with 0.1 nM or 10 nM leptin, respectively (n=5 for each; P<0.01).

## Aβ1-42: amyloid beta 1-42, toxin used in the AD models [reference compound]
[1]; Aβ1-42 alone
  survival following Aβ1-42 treatment: 41.2±5.8 % survival

## CSLPQT (listed as Mus musculus) [leptin (117-122)]
[2]
  magnitude of LTP after HFS (100 Hz, 1 s): 191±19.7 % of baseline
[3]
  increase in mitochondrial activity compared with Aβ1-42 alone: 40.5±3.7%

## SCSLPQ (listed as Mus musculus) [leptin (116-121)]
[2]
  magnitude of LTP after HFS (100 Hz, 1 s): 162±6.3 % of baseline
[3]
  increase in mitochondrial activity compared with Aβ1-42 alone: 43.61±3.9%

## SCSLPQTSGLQKPES (listed as Mus musculus) [leptin (116-130)]
[4]; 0.1 nM
  increase in cell number, Aβ1-42-treated cultures: 29.4±9.4%
  increase in cell number, CuCl2-treated cells: 27.8±10.6%
[4]; 10 nM
  increase in cell number, Aβ1-42-treated cultures: 51.8±6.3%
  increase in cell number, CuCl2-treated cells: 39.9±13.5%
[3]
  increase in mitochondrial activity compared with Aβ1-42 alone: 40.9 ± 5.8%

## leptin (22-56): leptin fragment amino acids 22-56 (Bachem), comparison fragment (VPIQKVQDDTKTLIKTIVTRINDISHTQSVSSKQK; UniProt P41159 22-56, looked up, fragment) [reference compound]
[1]; Aβ1-42 with 10 nM leptin (22-56)
  survival in Aβ1-42 treated cells: 48.6±9.3%

## leptin: the metabolic hormone leptin, whole (full length) leptin molecule; human leptin from Sigma in SH-SY5Y work
[4]; 0.1 nM
  increase in cell number, Aβ1-42-treated cultures: 19.2±15%
  increase in cell number, CuCl2-treated cells: 16.7±3.4%
[4]; 10 nM
  increase in cell number, Aβ1-42-treated cultures: 44.3±7.5%
  increase in cell number, CuCl2-treated cells: 43.4±9.2%
[3]
  increase in mitochondrial activity compared with Aβ1-42 alone: 32.6±5.2%
